Assay results: US9775854B2 (Indiana University Research and Technology Corp., priority 2006, dated 2017)
“Also recorded” adds a separate entry of the source.

What was measured:
[1] = test system: IDUA and p53 genes; details: cited from earlier work
[2] = test system: COS7 cells; experiment: Cytotoxicity (cell death, % inviability) in COS7 cells; assay type: cell-based
Description: Gentamicin and various congeners isolated and purified by, for example, the HPLC techniques outlined in Sandoval et al. were tested to assess their level of cytotoxicity. Briefly, COS7 cells were grown in the presence of either 200 or 500 ug/ml of one of the following test compounds, the C1 or the C2 congeners of gentamicin or native gentamicin. As a control still another batch of COS7 cells were grown in absence of all of the test compounds.
Referring now to FIG. 6 cell inviability was determined for cells exposed to no test compound, native gentamicin or a congener of gentamicin; in this graph a high value indicate […]. Cell death (% inviability) was determined for each of the six conditions.

[3] = test system: UGAC stop codon; experiment: Stop codon readthrough assay; assay type: cell-based; details: 200 ug/ml, 24 hours
Description: The cells were exposed to 200 ug/ml of each compound for 24 hours.
The method used to assess readthrough is as follows.
In order to determine the optimal concentrations of the aminoglycosides to use in the mammalian translation system, increasing amounts of each aminoglycoside were added to a rabbit reticulocyte translation system while expressing the QX(N) (UGAC) construct. The effect of aminoglycoside addition on total protein synthesis was monitored by comparing the total amount of proteins synthesized in the presence and absence of various aminoglycosides. A range of aminoglycoside concentrations was then determined that allowed a maximal amount of termination suppression without inhibiting total protein synthesis more than two- to threefold. In vitro translation reactions were carried out using the TNT coupled transcription/translation system (Promega). […] The gel was dried and subjected to PhosphorImager analysis in order to quantitate the amount of truncated and full-length protein species. The percentage of readthrough was then calculated as the amount of full-length protein/(truncated+full-length species)×100.

[4] = test system: viable cells; experiment: Cytotoxicity by dye exclusion assay (FIG. 7); assay type: cell-based; details: viable cells treated vs untreated
Description: FIG. 7 also includes information on the cell toxicity. Cytotoxicity was measured by comparing the number of viable cells in treated and untreated samples using a dye exclusion assay of the compounds tested. […] (the […]) was the most toxic compound tested 4.4 fold more toxic than the control (no added aminoglycoside) followed by […] (native gentamicin) 1.7 times more toxic than the control; the least toxic compound tested was […]

[5] = test system: multi-drug resistant form of Klebsiella pneumoniae; experiment: Bactericidal properties against multi-drug resistant Klebsiella pneumoniae; assay type: cell-based
Description: (§1) Referring now to Formula 1 and FIG. 1, 4 congeners can be isolated and purified from native gentamicin. Methods for isolating and purifying congeners include the following method. Briefly, separation of native gentamicin was carried out using a C18 column (250×4.60 mm) and the chromatograms was developed using a Waters 600e HPLC pump (Milford, Mass.). A gradient of 100% of a 0.1% (vol/vol) mixture of tri-fluoro-acetic acid in acetonitrile was used to develop the chronogram. […] There was no overlap between adjacent peaks. For all studies, the same lot of gentamicin was used. This ensured that the results obtained were independent of potential alteration in the ratio of gentamicin components. […] For additional discussion of this methodology please see, for example, Sandoval, et al.

[6] = test system: proximal convoluted tubules; experiment: Kidney morphology and histology in rats (H&E, PAS, modified Jablonski score, gentamicin immunofluorescence); assay type: in vivo, Sprague-Dawley rats; details: six doses
Description: Morphologic evaluation of injury caused by gentamicin and its congeners was assessed by grading the extent of necrosis of the proximal convoluted tubules. Injury scores were assigned on the basis of the predominant pattern present. For indirect immunofluorescence, 100 μm-thick sections were cut on a vibratome and stained with the monoclonal anti-gentamicin antibody (Biodesign International, Saco, Me.) and a fluorescein-conjugated secondary antibody (Jackson Immunoresearch, West Grove, Pa.) and lightly counterstained with Alexa 647 phalloidin (Molecular Probes) to localize filamentous actin for visualization using confocal microscopy.
Histological sections were viewed with a Wide field Nikon microscope with an attached color CCD camera (Nikon, Melville, N.Y.). Fluorescence images were acquired using a Bio-Rad MRC 1024 confocal microscope (Bio-Rad, Hercules, Calif.) on a Nikon platform (The Fryer Co., Huntley, Ill.). Co-localization studies with Texas Red dextran, FITC-Helixpontatia, and gentamicin were conducted on a Zeiss 510 confocal microscope with images illuminated and acquired sequentially to eliminate bleed-over emissions from the different fluorescence emission spectra.
Again, these studies were conducted after 7 days of exposure, or six doses of gentamicin. This was to ensure that we would see any delayed nephrotoxicity from the […]. These studies occurred at a time when the native gentamicin-treated animals were recovering, as evidenced by a reduction in serum creatinine levels in these animals. Therefore, these studies likely underestimate the actual histological damage that occurred early on in animals treated with native gentamicin. […] In addition, large perinuclear vacuoles (FIG. 3 B, arrowheads) could be seen in the renal corticol area. […] Here, proximal tubules from native gentamicin treated rats contained cast material and shed cells in the lumen (thick arrow). In addition, many of the proximal table cells contained large vacuoles that localized around the nucleus (FIG. 3 B, arrowheads).
Referring now to FIG. 3 D-E, thin histological sections also were stained with PAS to localize the glycocalyx that was associated with the brush border membrane of proximal tubules. […]
Referring now to FIG. 3 G-H, when tissues from rats that were exposed to the native commercial gentamicin compound or the […] of gentamicin were processed for indirect immunofluorescence localization of gentamicin, a difference in the intracellular accumulation and distribution emerged. […] Tissue sections from rats that were treated with normal saline alone and processed identically for immunofluorescence localization produced no fluorescence associated with gentamicin localization (data not shown).

[7] = test system: Gram-positive and multi-drug-resistant Gram-negative bacteria; details: Sandoval et al.; cited from earlier work
[8] = test system: LLC-PK1 proximal tubule cells; details: results provided in Sandoval et al.; cited from earlier work
[9] = Nephrotoxicity in rats: serum creatinine after six daily doses
Description: (§2) Differences in necrosis, apoptosis, and cell density among the various congeners on the human and porcine cell lines were determined using an ANOVA function with Systat 11 software (Systat Software, Point Richmond, Calif.). […] All reported values are mean±SEM.
We specifically used six daily doses for these studies to allow additional time for the C2 component to induce injury, because it is widely known that serum creatinine rises early in this model when native gentamicin is used.

[10] = test system: LLC-PK1 proximal tubule cells
Description: as §2
The nuclear dye propidium iodide is cell impermeant and labels only necrotic cells, characterized by permeable cell membranes; co-localization of the two dyes gives a reddish-pink color. […] Values are means±SEM. Bar=approximately 10 microns.
The nuclear dyes propidium iodide and Hoechst 33342 were used as markers for necrosis and apoptosis, respectively.

[11] = test system: Bacillus subtilus; experiment: Bactericidal properties against Bacillus subtilus; assay type: cell-based
Description: as §1

[12] = test system: LLC-PK1 cells; experiment: Long-term (24 h) exposure: lysosome and Golgi complex localization in LLC-PK1 cells; details: 24 h of continuous exposure
Description: During this period of exposure to native gentamicin or the congeners, lysosomes were labeled by adding a 10,000 molecular weight rhodamine dextran to the culture medium (0.5 mg/ml; Molecular Probes). The cells then were fixed and stained for indirect immunofluorescence and visualized via confocal microscopy. Briefly, the Golgi complex was localized with a fluorescein-conjugated lectin from Helix pornotia at 5 μg/ml (EY Laboratories, San Mateo, Calif.) diluted in solution that contained the CY-5 conjugated secondary antibody that was used in the indirect immunolocalization of gentamicin. Visualization of nonlysosomal, cytosolic gentamicin was carried out as described previously, using a Tyramide Signal Amplification (Molecular Probes).
In order to study long-term differences in the intracellular distribution of gentamicin, we undertook additional study of gentamicin distribution in LLC-PK1 cells. […]

[13] = test system: dystrophin; experiment: Dystrophin immunohistochemistry in mdx mice after i.m. treatment; assay type: in vivo; details: about 1 or 5 mg/day, 7 days
Description: Eight mdx mice are treated with I.M. injections of either gentamicin or the […] of gentamicin (C2 in Formula I) four of the mice receive either gentamicin or the […] at a dose of about 1 mg/day and the other four mice receive the same compounds at a dose of about 5 mg/day. The animals are dosed over a period of 7 days. […] All mice are sacrificed, their skeletal muscle and their hearts are frozen and cryostat sectioned. The presence of dystrophin in these sections is investigated by immunohistochemistry. Strong dystrophin immunostaining is observed in the normal skeletal and heart muscles. In the untreated mdx muscles, dystrophin immunostaining is observed only in a few revertant fibers. […] The dystrophin staining is less intense in the muscles of mice treated with […]. Therefore a dose of about 8 to 40 mg per Kg of body weight per day of either gentamicin or the […] of gentamicin successfully suppresses the premature stop codon by inserting an amino acid, and continuing translation of […] nucleic acids. Subcutaneous and intravenous administration will provide the same results. The duration of the course of treatment may vary. […]

[14] = LLC-PK1 cells, 24 hours of exposure

## NCC[C@H](O)C(=O)N[C@@H]1C[C@H](N)[C@@H](O[C@H]2O[C@H](CN)[C@@H](O)[C@H](O)[C@H]2O)[C@H](O)[C@H]1O[C@H]1O[C@H](CO)[C@@H](O)[C@H](N)[C@H]1O [Amikacin]
[1]
  premature stop codons overcome: can be overcome

## NC[C@H]1O[C@H](O[C@H]2[C@H](O)[C@@H](O[C@H]3O[C@H](CO)[C@@H](O)[C@H](N)[C@H]3O)[C@H](N)C[C@@H]2N)[C@H](N)C[C@@H]1O [Tobramicin]
[1]
  premature stop codons overcome: not

## gentamicin C1 [reference compound]
[2]; 200 or 500 ug/ml
  toxicity ranking (cell death, % inviability): greatest toxicity
[3]
  readthrough of the UGAC stop codon: minimal readthrough
[4]
  toxicity relative to control (no added aminoglycoside): 4.4 fold

## gentamicin C2
[5]
  bactericidal properties: excellent bactericidal properties
[6]; rat cortex, compared with native gentamicin
  renal injury, modified Jablonski score: significantly reduced; also recorded: significantly lower
[6]; rats, 7 days of exposure
  kidney morphology, H&E-stained sections: normal morphology
  lysosomal morphology in proximal tubule cells, indirect immunofluorescence: normal lysosomal morphology
  proximal tubular brush border, PAS staining: more abundant and enriched PAS staining
[7]
  bactericidal potency compared with native gentamicin and other congeners: as potent a bactericide
[8]
  toxicity in cell culture: nontoxic
[9]; 100 mg/kg per day intraperitoneally, six daily doses
  change in serum creatinine (in words): no elevation in serum creatinine
[9]; 100 mg/kg per day intraperitoneally, six daily doses, up to 24 hours after the last injection
  serum creatinine: ≤ 0.2 mg/dL
[9]; animal studies
  functional and pathologic changes characteristic of gentamicin nephrotoxicity: failed to induce
[10]; [14]
  cell density, % of untreated (control) values: 80.3±5.7%
  percentage of cell death (toxicity index): 3.1±1.3%
[10]; cultured cells, 24 hours of continual exposure
  cytotoxicity in cell culture (in words): minimal cytotoxicity; also recorded: markedly reduced toxicity; also recorded: minimal evidence of toxicity
[2]; 200 ug/ml
  toxicity (cell death, % inviability): virtually no toxicity
[2]; 500 ug/ml
  toxicity (cell death, % inviability): only very minimal toxicity
[11]
  bactericidal properties: excellent bactericidal properties
[3]
  readthrough of the UGAC stop codon: intermediate effect on readthrough
[12]
  Golgi complex staining with Helix pomatia lectin: faint
  lysosome appearance (Texas Red dextran): small, discrete vesicles found throughout the cellular cytosol
[4]
  toxicity relative to control (no added aminoglycoside): no more toxic than the control
[13]
  dystrophin immunostaining in skeletal and heart muscle: detected by immunohistochemistry on all muscle fibers and all heart muscle cells
